In ChEMBL document CHEMBL4342418, “1,2,3-Triazole-containing hybrids as potential anticancer agents: Current developments, action mechanisms and structure-activity relationships” (Eur J Med Chem, 2019):
Values after ≈ are worked out from the molar mass of the structure shown.

How the values were obtained:
SK-BR-3 = assay: Antiproliferative activity against human SKBR3 cells assessed as reduction in cell viability after 24 hrs by MTT assay; type: functional, cell-based; settings: SK-BR-3, 24 h
HeLa [1] = assay: Antiproliferative activity against human HeLa cells assessed as reduction in cell viability after 24 hrs by MTT assay; type: functional, cell-based
HepG2 [2] = assay: Antiproliferative activity against human HepG2 cells assessed as reduction in cell viability after 24 hrs by MTT assay; type: functional, cell-based; settings: HepG2, 24 h
A549 [3] = assay: Antiproliferative activity against human A549 cells assessed as reduction in cell viability after 72 hrs by MTT assay; type: functional, cell-based; settings: A549, 72 h
HepG2 [4] = assay: Antiproliferative activity against human HepG2 cells assessed as reduction in cell viability after 72 hrs by MTT assay; type: functional, cell-based; settings: HepG2, 72 h
HepG2 [5] = assay: Potency index, ratio of foretinib IC50 to test compound IC50 for antiproliferative activity against human HepG2 cells; type: functional
A549 [6] = assay: Potency index, ratio of foretinib IC50 to test compound IC50 for antiproliferative activity against human A549 cells; type: functional
MCF7 [7] = assay: Antiproliferative activity against human MCF7 cells assessed as reduction in cell viability after 72 hrs by MTT assay; type: functional, cell-based; settings: MCF7, 72 h
MCF7 [8] = assay: Potency index, ratio of foretinib IC50 to test compound IC50 for antiproliferative activity against human MCF7 cells; type: functional
[9] = Antiproliferative activity against human GBM2 cells assessed as reduction in cell viability after 72 hrs by MTT assay; type: functional, cell-based; settings: GBM2, 72 h
[10] = Potency index, ratio of temozolomide IC50 to test compound IC50 for antiproliferative activity against human GBM2 cells; type: functional
[11] = Antiproliferative activity against human GBM95 cells assessed as reduction in cell viability after 72 hrs by MTT assay; type: functional, cell-based
[12] = Potency index, ratio of temozolomide IC50 to test compound IC50 for antiproliferative activity against human GBM95 cells; type: functional
HeLa [13] = assay: Antiproliferative activity against human HeLa cells by MTT assay; type: functional, cell-based
A549 [14] = assay: cells; type: functional, cell-based; settings: Homo sapiens
Description: Antiproliferative activity against human A549 cells by MTT assay

DU-145 [15] = assay: Antiproliferative activity against human DU145 cells by MTT assay; type: functional, cell-based
B16 = assay: Antiproliferative activity against mouse B16 cells by MTT assay; type: functional, cell-based
MCF7 [16] = assay: cells; type: functional, cell-based; settings: Homo sapiens
Description: Antiproliferative activity against human MCF7 cells by MTT assay

Caov-3 cell line = assay: Antiproliferative activity against human Caov3 cells by SRB assay; type: functional
OVCAR-3 = assay: Antiproliferative activity against human OVCAR3 cells by SRB assay; type: functional
SK-OV-3 = assay: Antiproliferative activity against human SKOV3 cells by SRB assay; type: functional, cell-based
MCF7 [17] = assay: Antiproliferative activity against human MCF7 cells assessed as reduction in cell viability after 48 hrs by MTT assay; type: functional, cell-based; settings: MCF7, 48 h
T47D = assay: Antiproliferative activity against human T47D cells assessed as reduction in cell viability after 48 hrs by MTT assay; type: functional, cell-based
SNB-19 = assay: Antiproliferative activity against human SNB19 cells assessed as reduction in cell viability after 48 hrs by MTT assay; type: functional, cell-based; settings: SNB-19, 48 h
MDA-MB-231 [18] = assay: Antiproliferative activity against human MDA-MB-231 cells by SRB assay; type: functional
A-431 = assay: Antiproliferative activity against human A431 cells assessed as reduction in cell viability after 24 hrs by MTT assay; type: functional, cell-based; settings: A-431, 24 h
MDA-MB-231 [19] = assay: cells; settings: Homo sapiens
Description: Antiproliferative activity against human MDA-MB-231 cells assessed as reduction in cell viability preincubated for 24 hrs under hypoxia condition further incubated for 72 hrs under normaxic condition by MTT assay

K562 = assay: Antiproliferative activity against human K562 cells assessed as reduction in cell viability after 24 hrs by MTT assay; type: functional, cell-based; settings: K562, 24 h
HeLa [20] = assay: Antiproliferative activity against human HeLa cells by SRB assay; type: functional, cell-based
HeLa [21] = assay: Antiproliferative activity against human HeLa cells assessed as reduction in cell viability after 48 hrs by MTT assay; type: functional, cell-based
Caco-2 = assay: Antiproliferative activity against human Caco2 cells assessed as reduction in cell viability after 48 hrs by MTT assay; type: functional, cell-based; settings: Caco-2, 48 h
U-87 MG = assay: Antiproliferative activity against human U87 cells assessed as reduction in cell viability after 72 hrs by MTT assay; type: functional, cell-based, U-87MG ATCC
PC-3 = assay: Antiproliferative activity against human PC3 cells assessed as reduction in cell viability after 24 hrs by MTT assay; type: functional, cell-based; settings: PC-3, 24 h
PANC-1 = assay: Growth inhibition in human PANC1 cells after 48 hrs by SRB assay; type: functional; settings: PANC-1, 48 h
COLO 205 = assay: Antiproliferative activity against human COLO205 cells assessed as reduction in cell viability after 24 hrs by MTT assay; type: functional, cell-based; settings: COLO 205, 24 h
DU-145 [22] = assay: Growth inhibition in human DU145 cells after 48 hrs by SRB assay; type: functional; settings: DU-145, 48 h
MOLT-4 = assay: Antiproliferative activity against human MOLT4 cells assessed as reduction in cell viability after 72 hrs by MTT assay; type: functional, cell-based; settings: MOLT-4, 72 h
HCT-116 = assay: Antiproliferative activity against human HCT116 cells assessed as reduction in cell viability after 48 hrs by MTT assay; type: functional, cell-based; settings: HCT-116, 48 h
HT-29 = assay: Antiproliferative activity against human HT-29 cells assessed as reduction in cell viability after 72 hrs by MTT assay; type: functional, cell-based; settings: HT-29, 72 h
MDA-MB-231 [23] = assay: Growth inhibition in human MDA-MB-231 cells after 48 hrs by SRB assay; type: functional; settings: MDA-MB-231, 48 h
MDA-MB-231 [24] = assay: Antiproliferative activity against human MDA-MB-231 cells assessed as reduction in cell viability after 72 hrs by MTT assay; type: functional, cell-based; settings: MDA-MB-231, 72 h
A549 [25] = assay: Growth inhibition in human A549 cells after 48 hrs by SRB assay; type: functional; settings: A549, 48 h
SiHa = assay: Growth inhibition in human SiHa cells after 48 hrs by SRB assay; type: functional
MDA-MB-231 [26] = assay: Antiproliferative activity against human MDA-MB-231 cells assessed as reduction in cell viability after 24 hrs by MTT assay; type: functional, cell-based; settings: MDA-MB-231, 24 h
IMR-32 [27] = assay: Growth inhibition in human IMR32 cells after 48 hrs by SRB assay; type: functional; settings: IMR-32, 48 h
A549 [28] = assay: Antiproliferative activity against human A549 cells assessed as reduction in cell viability after 24 hrs by MTT assay; type: functional, cell-based; settings: A549, 24 h
MDA-MB-231 [29] = assay: Antiproliferative activity against human MDA-MB-231 cells assessed as reduction in cell viability after 48 hrs by MTT assay; type: functional, cell-based; settings: MDA-MB-231, 48 h
IMR-32 [30] = assay: Antiproliferative activity against human IMR32 cells by SRB assay; type: functional
[31] = Antiproliferative activity against human MiaPaCa cells by SRB assay; type: functional; settings: MIA PaCa-2
IMR-32 [32] = assay: Antiproliferative activity against human IMR32 cells assessed as reduction in cell viability after 72 hrs by MTT assay; type: functional, cell-based; settings: IMR-32, 72 h

COc1ccc(-c2nnn(Cc3cc(F)ccc3F)c2-c2nc3cc(C)ccc3o2)cc1
IC50 (SK-BR-3): 7.1 µg/mL (≈ 16.4 µM) | IC50 (HeLa [1]): 6.8 µg/mL (≈ 15.7 µM) | IC50 (HepG2 [2]): 11.2 µg/mL (≈ 25.9 µM)

O=C(Nc1ccc(Oc2ncnc3ccsc23)cc1)c1nnn(-c2ccc(Cl)cc2)c1C(F)(F)F
IC50 (A549 [3]): 500 to 1000 nM | IC50 (HepG2 [4]): 500 to 1000 nM | Ratio IC50 (HepG2 [5]): 3.6 - 5.2 | Ratio IC50 (A549 [6]): 3.6 - 5.2 | IC50 (MCF7 [7]): 500 to 1000 nM | Ratio IC50 (MCF7 [8]): 3.6 - 5.2

O=Cc1ccccc1-n1cc(COc2cccc(OCc3cn(-c4ccccc4C=O)nn3)c2)nn1
IC50 [9]: 30300 nM | Ratio IC50 [10]: 37.3 | IC50 [11]: 38200 nM | Ratio IC50 [12]: 16.3

CCc1ccc(-c2cn(CCNC3=C(C)C(=O)c4ccccc4C3=O)nn2)cc1
IC50 (HeLa [13]): 8020 to 26100 nM | IC50 (A549 [14]): 8020 to 26100 nM | IC50 (DU-145 [15]): 8020 to 26100 nM | IC50 (B16): 8020 to 26100 nM | IC50 (MCF7 [16]): 8020 to 26100 nM

COc1cc(O)c2c(=O)cc(-c3ccc(OCc4cn(-c5ccccc5F)nn4)cc3)oc2c1
GI50 (Caov-3 cell line): 10000 to 20000 nM | GI50 (OVCAR-3): 10000 to 20000 nM | GI50 (SK-OV-3): 10000 to 20000 nM

C=C(C)[C@@H]1CC[C@]2(OC(=O)c3cn(Cc4ccc(F)cc4)nn3)CC[C@]3(C)[C@H](CC[C@@H]4[C@@]5(C)CC[C@H](OC(=O)c6cn(Cc7ccc(F)cc7)nn6)C(C)(C)[C@@H]5CC[C@]43C)[C@@H]12
IC50 (MCF7 [17]): 50 to 90 nM | IC50 (T47D): 50 to 90 nM | IC50 (SNB-19): 50 to 90 nM

COc1cccc2c1C(=O)c1c(O)c3c(c(O)c1C2=O)C[C@@](O)(C(=O)CO)C[C@@H]3O[C@H]1C[C@H](N)[C@H](O)[C@H](C)O1 [DOXORUBICIN]
GI50 (MDA-MB-231 [18]): 23 to 97 nM | IC50 (A-431): 1430 to 12000 nM | IC50 (MDA-MB-231 [19]): 600 nM | IC50 (K562): 1430 to 12000 nM | GI50 (HeLa [20]): 23 to 97 nM | IC50 (A549 [14]): 3300 nM | IC50 (HeLa [21]): 550 to 4630 nM | IC50 (Caco-2): 1000 to 10000 nM | IC50 (U-87 MG): 80 to 425 nM | IC50 (PC-3): 1430 to 12000 nM | GI50 (PANC-1): < 10 nM | IC50 (COLO 205): 1430 to 12000 nM | GI50 (DU-145 [22]): < 10 nM | IC50 (MOLT-4): 15 to 335 nM | IC50 (HCT-116): 550 to 10000 nM | IC50 (HT-29): 15 to 335 nM | GI50 (MDA-MB-231 [23]): < 10 nM | IC50 (MCF7 [17]): 1000 to 10000 nM | IC50 (MDA-MB-231 [24]): 80 to 425 nM | GI50 (A549 [25]): < 10 nM | GI50 (SiHa): < 10 nM | IC50 (MCF7 [7]): 15 to 335 nM | IC50 (MDA-MB-231 [26]): 1430 to 12000 nM | IC50 (T47D): 1000 to 10000 nM | GI50 (IMR-32 [27]): < 10 nM | IC50 (A549 [28]): 1430 to 12000 nM | IC50 (MDA-MB-231 [29]): 550 to 4630 nM | GI50 (IMR-32 [30]): 23 to 97 nM | GI50 [31]: 23 to 97 nM | IC50 (IMR-32 [32]): 80 to 425 nM
